Read-outs that look alike come from different tables or passages of the source.
Experiments:
[1] = target: T1, intracellular phosphorylation of EGFR in NCI-H1975 cell line that harbors the EGFR L858R T790M mutations (Homo sapiens, UniProt P00533, L858R/T790M); assay: NCI-H1975 pEGFR AlphaLISA assay; assay type: cell-based; conditions: NCI-H1975 cells (EGFR L858R T790M), p-EGFR (Tyr1068), 4-5 hours incubation; read-out: Ext pEGFR H1975 GMean IC50 (nM) Protocol: @Pharmaron AlphaLISA (Num)
T1 construct: NCI-H1975 cell line that harbors the EGFR L858R T790M mutations (ATCC, CRL-5908); host or cells: NCI-H1975
Description: On the next day, the test compounds and DMSO control were added into H1975 cell plate followed by incubation at 37C/5% CO2 for 4-5 hours. […] Then 5 μL of a donor bead mix was added to each well followed by overnight incubation at room temperature in dark. On the next day, the plate was read at a compatible plate reader to obtain pEGFR signal. Percent of pEGFR inhibition was plotted against log concentration of compounds to generate IC50 values.

EGFR (L858R T790M C797S) = target: T2, EGFR (L858R T790M C797S) (Homo sapiens, UniProt P00533, C797S/L858R/T790M); assay: Biochemical EGFR inhibition assay (Caliper mobility shift), EGFR LRTMCS
T2 construct: purchased SignalChem E10-122VG
How it was run: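 Each enzyme was allowed to phosphorylate 10–20% of its peptide at 25° C. before EDTA (35 mM) quench. Separated substrate and product peaks were measured by mobility shift, giving apparent IC50 values.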

[2] = LRTMCS (PH) IC50 (nM) @ 1 mM ATP (Num), EGFR LRTMCS mutant

T1 sequence (P00533 25-1210 T790M/L858R): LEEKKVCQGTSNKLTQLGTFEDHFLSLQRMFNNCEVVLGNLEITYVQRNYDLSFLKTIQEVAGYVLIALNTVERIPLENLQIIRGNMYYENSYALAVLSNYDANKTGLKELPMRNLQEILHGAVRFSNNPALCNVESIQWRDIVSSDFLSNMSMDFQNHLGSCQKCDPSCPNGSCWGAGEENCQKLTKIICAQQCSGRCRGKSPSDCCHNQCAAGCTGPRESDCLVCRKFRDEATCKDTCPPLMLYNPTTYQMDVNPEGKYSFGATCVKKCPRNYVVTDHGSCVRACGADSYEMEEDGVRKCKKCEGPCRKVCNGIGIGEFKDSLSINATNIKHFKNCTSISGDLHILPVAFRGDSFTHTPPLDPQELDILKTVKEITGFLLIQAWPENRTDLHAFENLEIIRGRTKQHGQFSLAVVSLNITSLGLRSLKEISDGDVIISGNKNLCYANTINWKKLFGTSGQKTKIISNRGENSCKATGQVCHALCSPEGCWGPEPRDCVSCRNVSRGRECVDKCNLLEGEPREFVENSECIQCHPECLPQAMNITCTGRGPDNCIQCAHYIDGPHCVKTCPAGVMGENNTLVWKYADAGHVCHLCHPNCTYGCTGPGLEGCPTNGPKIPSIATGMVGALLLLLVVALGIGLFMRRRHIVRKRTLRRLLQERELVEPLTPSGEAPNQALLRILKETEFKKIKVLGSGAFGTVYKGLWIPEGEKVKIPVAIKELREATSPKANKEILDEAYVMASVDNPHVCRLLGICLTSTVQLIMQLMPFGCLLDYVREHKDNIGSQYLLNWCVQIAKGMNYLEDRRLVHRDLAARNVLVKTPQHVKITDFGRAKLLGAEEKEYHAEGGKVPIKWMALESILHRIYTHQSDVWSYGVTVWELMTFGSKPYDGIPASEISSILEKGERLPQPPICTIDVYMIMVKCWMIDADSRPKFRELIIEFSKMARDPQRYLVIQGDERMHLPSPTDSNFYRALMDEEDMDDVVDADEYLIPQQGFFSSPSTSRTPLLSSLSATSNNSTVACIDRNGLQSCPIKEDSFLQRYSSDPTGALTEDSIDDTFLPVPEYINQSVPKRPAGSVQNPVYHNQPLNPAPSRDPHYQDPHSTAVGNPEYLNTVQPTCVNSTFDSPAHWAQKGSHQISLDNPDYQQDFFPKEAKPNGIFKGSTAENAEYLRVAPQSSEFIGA
T2 sequence (P00533 25-1210 T790M/C797S/L858R): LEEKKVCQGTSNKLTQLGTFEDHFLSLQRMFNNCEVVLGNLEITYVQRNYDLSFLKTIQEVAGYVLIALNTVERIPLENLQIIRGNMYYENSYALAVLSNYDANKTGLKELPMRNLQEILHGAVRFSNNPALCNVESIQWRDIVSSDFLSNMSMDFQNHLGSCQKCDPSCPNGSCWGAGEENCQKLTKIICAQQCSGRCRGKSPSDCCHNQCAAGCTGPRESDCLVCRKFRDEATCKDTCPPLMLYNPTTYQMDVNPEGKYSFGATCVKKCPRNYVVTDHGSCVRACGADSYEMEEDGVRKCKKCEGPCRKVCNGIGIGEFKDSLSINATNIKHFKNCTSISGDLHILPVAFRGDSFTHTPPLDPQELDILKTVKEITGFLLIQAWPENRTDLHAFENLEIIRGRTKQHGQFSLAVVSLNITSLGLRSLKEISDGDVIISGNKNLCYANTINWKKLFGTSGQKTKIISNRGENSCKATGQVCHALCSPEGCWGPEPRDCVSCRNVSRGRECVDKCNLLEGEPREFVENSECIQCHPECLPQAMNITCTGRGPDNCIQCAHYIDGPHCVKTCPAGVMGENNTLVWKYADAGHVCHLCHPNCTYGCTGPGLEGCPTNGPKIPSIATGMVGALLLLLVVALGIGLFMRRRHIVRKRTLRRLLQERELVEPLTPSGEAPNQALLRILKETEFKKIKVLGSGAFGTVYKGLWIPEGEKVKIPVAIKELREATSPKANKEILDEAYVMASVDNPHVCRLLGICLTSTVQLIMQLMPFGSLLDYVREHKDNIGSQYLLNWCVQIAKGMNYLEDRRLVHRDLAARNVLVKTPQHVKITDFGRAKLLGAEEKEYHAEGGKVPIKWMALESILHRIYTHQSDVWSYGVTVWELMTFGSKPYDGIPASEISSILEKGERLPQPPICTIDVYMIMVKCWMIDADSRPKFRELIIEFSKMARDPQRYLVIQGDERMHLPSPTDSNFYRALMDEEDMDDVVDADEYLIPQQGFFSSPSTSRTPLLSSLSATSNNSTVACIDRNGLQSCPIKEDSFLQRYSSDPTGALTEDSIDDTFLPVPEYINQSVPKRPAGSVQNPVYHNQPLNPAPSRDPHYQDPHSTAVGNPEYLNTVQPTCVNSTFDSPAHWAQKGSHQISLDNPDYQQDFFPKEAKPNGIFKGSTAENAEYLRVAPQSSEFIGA

IC50 [1] [nM]	IC50 (EGFR (L858R T790M C797S); [2]) [nM]	IC50 (EGFR (L858R T790M C797S); read-out: LRTMCS (PH) IC50 (nM) @ 1 mM ATP (Num), EGFR LRTMCS mutant) [nM]	Structure (SMILES)
10 to 20	< 15	–	CC(C)c1cnc(N2CC(C[S+]([O-])C(F)(F)F)C2)c2cnc(Nc3ccnc(N4CC[C@@H](O)[C@@](C)(F)C4)n3)cc12 (stereo partly drawn) [Example 100, (3S,4R)-3-fluoro-1-(4-((5-isopropyl-8-(3-(((trifluoromethyl)sulfinyl)methyl)azetidin-1-yl)-2,7-naphthyridin-3-yl)amino)pyrimidin-2-yl)-3-methylpiperidin-4-ol]
> 50	< 15	–	CC(=O)N1CC(Cc2ccc(C(C)C)c3cc(Nc4ccnc(N5CC[C@@H](O)[C@@](C)(F)C5)n4)ncc23)C1 [Example 2, 1-(3-((3-((2-((3S,4R)-3-fluoro-4-hydroxy-3-methylpiperidin-1-yl)pyrimidin-4-yl)amino)-5-isopropylisoquinolin-8-yl)methyl)azetidin-1-yl)ethan-1-one]
10 to 20	< 15	–	CC(C)c1cnc(N2CC(C#N)C2)c2cnc(Nc3ccnc(N4CC[C@@H](O)[C@@](C)(F)C4)n3)cc12 [Example 58, 1-(6-((2-((3S,4R)-3-fluoro-4-hydroxy-3-methylpiperidin-1-yl)pyrimidin-4-yl)amino)-4-isopropyl-2,7-naphthyridin-1-yl)azetidine-3-carbonitrile]
30 to 50	15 to 20	–	CCc1cnc(N2CC[C@@H]2C)c2cnc(Nc3ccnc(N4CC[C@@H](O)[C@@](C)(F)C4)n3)cc12 (single isomer, unassigned) [Example 181, (3S,4R)-1-(4-((5-ethyl-8-((S)-2-methylazetidin-1-yl)-2,7-naphthyridin-3-yl)amino)pyrimidin-2-yl)-3-fluoro-3-methylpiperidin-4-ol or (3S,4R)-1-(4-((5-ethyl-8-((R)-2-methylazetidin-1-yl)-2,7-naphthyridin-3-yl)amino)pyrimidin-2-yl)-3-fluoro-3-methylpiperidin-4-ol]
30 to 50	30 to 100	–	CC(C)c1cnc(N2CC3(CCN(C)C3=O)C2)c2cnc(Nc3ccnc(N4CC[C@@H](O)[C@@](C)(F)C4)n3)cc12 [Example 99, 2-(6-((2-((3S,4R)-3-fluoro-4-hydroxy-3-methylpiperidin-1-yl)pyrimidin-4-yl)amino)-4-isopropyl-2,7-naphthyridin-1-yl)-6-methyl-2,6-diazaspiro[3.4]octan-5-one]
> 50	20 to 30	–	C[C@H](CO)c1ncc(N2CC[C@H]2C)c2cnc(Nc3ccnc(N4CC[C@@H](O)[C@@](C)(F)C4)n3)cc12 (single isomer, unassigned) [Example 178, (3S,4R)-3-fluoro-1-(4-((5-((S)-1-hydroxypropan-2-yl)-8-((R)-2-methylazetidin-1-yl)-2,6-naphthyridin-3-yl)amino)pyrimidin-2-yl)-3-methylpiperidin-4-ol or (3S,4R)-3-fluoro-1-(4-((5-((R)-1-hydroxypropan-2-yl)-8-((R)-2-methylazetidin-1-yl)-2,6-naphthyridin-3-yl)amino)pyrimidin-2-yl)-3-methylpiperidin-4-ol]
30 to 50	15 to 20	–	C[C@H](CO)c1ccc(N2CC[C@H]2C)c2cnc(Nc3ccnc(N4CC[C@@H](O)[C@@](C)(F)C4)n3)cc12 (single isomer, unassigned) [Example 158, (3S,4R)-3-fluoro-1-(4-((5-((S)-1-hydroxypropan-2-yl)-8-((R)-2-methylazetidin-1-yl)isoquinolin-3-yl)amino)pyrimidin-2-yl)-3-methylpiperidin-4-ol or (3S,4R)-3-fluoro-1-(4-((5-((R)-1-hydroxypropan-2-yl)-8-((R)-2-methylazetidin-1-yl)isoquinolin-3-yl)amino)pyrimidin-2-yl)-3-methylpiperidin-4-ol]
20 to 30	15 to 20	–	CC(C)c1cnc(N2CCC3(C2)CC3(F)F)c2cnc(Nc3ccnc(N4CC[C@@H](O)[C@@](C)(F)C4)n3)cc12 (stereo partly drawn) [Example 63, (3S,4R)-1-(4-((8-(1,1-difluoro-5-azaspiro[2.4]heptan-5-yl)-5-isopropyl-2,7-naphthyridin-3-yl)amino)pyrimidin-2-yl)-3-fluoro-3-methylpiperidin-4-ol]
> 50	15 to 20	–	CC(C)c1cnc(N2C[C@H](O)[C@H]2C)c2cnc(Nc3ccnc(N4CC[C@@](C)(O)[C@@H](F)C4)n3)cc12 (single isomer, unassigned) [Example 172, (3S,4R)-3-fluoro-1-(4-((8-((2R,3S)-3-hydroxy-2-methylazetidin-1-yl)-5-isopropyl-2,7-naphthyridin-3-yl)amino)pyrimidin-2-yl)-4-methylpiperidin-4-ol or (3R,4S)-3-fluoro-1-(4-((8-((2R,3S)-3-hydroxy-2-methylazetidin-1-yl)-5-isopropyl-2,7-naphthyridin-3-yl)amino)pyrimidin-2-yl)-4-methylpiperidin-4-ol]
20 to 30	< 15	–	CC(C)c1cnc(N2CCC23CN(C(C)C)C3)c2cnc(Nc3ccnc(N4CC[C@@H](O)[C@@](C)(F)C4)n3)cc12 [Example 193, (3S,4R)-3-fluoro-1-(4-((5-isopropyl-8-(6-isopropyl-1,6-diazaspiro[3.3]heptan-1-yl)-2,7-naphthyridin-3-yl)amino)pyrimidin-2-yl)-3-methylpiperidin-4-ol]
30 to 50	< 15	–	COC[C@@H](C)c1cnc(N2CC[C@H]2C)c2cnc(Nc3ccnc(N4CC[C@@H](O)[C@@](C)(F)C4)n3)cc12 (single isomer, unassigned) [Example 215, (3S,4R)-3-fluoro-1-(4-((5-((S)-1-methoxypropan-2-yl)-8-((R)-2-methylazetidin-1-yl)-2,7-naphthyridin-3-yl)amino)pyrimidin-2-yl)-3-methylpiperidin-4-ol or (3S,4R)-3-fluoro-1-(4-((5-((R)-1-methoxypropan-2-yl)-8-((R)-2-methylazetidin-1-yl)-2,7-naphthyridin-3-yl)amino)pyrimidin-2-yl)-3-methylpiperidin-4-ol]
> 50	< 15	–	CC(C)c1cnc(N2CCC23CN(C)C3)c2cnc(Nc3ccnc(N4CC[C@@]5(CCO5)C(F)(F)C4)n3)cc12 (single isomer, unassigned) [Example 194, (R)—N-(2-(5,5-difluoro-1-oxa-7-azaspiro[3.5]nonan-7-yl)pyrimidin-4-yl)-5-isopropyl-8-(6-methyl-1,6-diazaspiro[3.3]heptan-1-yl)-2,7-naphthyridin-3-amine or (S)—N-(2-(5,5-difluoro-1-oxa-7-azaspiro[3.5]nonan-7-yl)pyrimidin-4-yl)-5-isopropyl-8-(6-methyl-1,6-diazaspiro[3.3]heptan-1-yl)-2,7-naphthyridin-3-amine]
10 to 20	< 15	–	CC(C)c1cnc(N2CC3(C2)CC3(F)F)c2cnc(Nc3ccnc(N4CC[C@@H](O)[C@@](C)(F)C4)n3)cc12 [Example 59, (3S,4R)-1-(4-((8-(1,1-difluoro-5-azaspiro[2.3]hexan-5-yl)-5-isopropyl-2,7-naphthyridin-3-yl)amino)pyrimidin-2-yl)-3-fluoro-3-methylpiperidin-4-ol]
> 50	15 to 20	–	C[C@@H]1[C@H](F)CN1c1ncc([C@@H](C)CO)c2cc(Nc3ccnc(N4CC[C@@H](O)[C@@](C)(F)C4)n3)ncc12 (single isomer, unassigned) [Example 209, (3S,4R)-3-fluoro-1-(4-((8-((2R,3R)-3-fluoro-2-methylazetidin-1-yl)-5-((R)-1-hydroxypropan-2-yl)-2,7-naphthyridin-3-yl)amino)pyrimidin-2-yl)-3-methylpiperidin-4-ol or (3S,4R)-3-fluoro-1-(4-((8-((2R,3R)-3-fluoro-2-methylazetidin-1-yl)-5-((S)-1-hydroxypropan-2-yl)-2,7-naphthyridin-3-yl)amino)pyrimidin-2-yl)-3-methylpiperidin-4-ol]
10 to 20	–	< 15	CC(C)c1cnc(N2CC[C@@H](CS(C)(=O)=O)C2)c2cnc(Nc3ccnc(N4CC[C@@H](O)[C@@](C)(F)C4)n3)cc12 (single isomer, unassigned) [Example 208, (3S,4R)-3-fluoro-1-(4-((5-isopropyl-8-((R)-3-((methylsulfonyl)methyl)pyrrolidin-1-yl)-2,7-naphthyridin-3-yl)amino)pyrimidin-2-yl)-3-methylpiperidin-4-ol or (3S,4R)-3-fluoro-1-(4-((5-isopropyl-8-((S)-3-((methylsulfonyl)methyl)pyrrolidin-1-yl)-2,7-naphthyridin-3-yl)amino)pyrimidin-2-yl)-3-methylpiperidin-4-ol]
30 to 50	< 15	–	CC(C)c1cnc(N2CC[C@H]2C)c2cnc(Nc3ccnc(N4CC[C@@H](OCCN(C)C)[C@@H](F)C4)n3)cc12 [Example 203, N-(2-((3S,4R)-4-(2-(dimethylamino)ethoxy)-3-fluoropiperidin-1-yl)pyrimidin-4-yl)-5-isopropyl-8-((R)-2-methylazetidin-1-yl)-2,7-naphthyridin-3-amine]

Source: patent US20240382483A1, “HETEROCYCLIC EGFR INHIBITORS FOR USE IN THE TREATMENT OF CANCER” (Blueprint Medicines Corporation, priority 2021, published 2024)
